Measured values reported in ChEMBL document CHEMBL1131209 (J Med Chem, 1998).

Columns and labels:
Opioid receptor = Opioid receptor (Rattus norvegicus, UniProt P33533+P34975+P33535); assay: Compound was tested for its binding affinity towards Opioid receptors using [3H]naloxone from rat whole brain
D(2) dopamine receptor = D(2) dopamine receptor (Rattus norvegicus, UniProt P61169); assay: Compound was tested for its binding affinity towards Dopamine receptor D2 using [3H]spiperone from rat striatum
[1] = biological target: Serotonin 2 (5-HT2) receptor; assay: Compound was tested for its binding affinity towards 5-hydroxytryptamine 2 receptor using [3H]ketanserin from guinea pig frontal cortex; assay type: tissue-based, Cavia porcellus
[2] = biological target: Glutamate receptor ionotropic, NMDA 2C (Rattus norvegicus, UniProt Q00961); assay: Compound was tested for its binding affinity towards PCP receptor using [3H](+)-NANM in the presence of 5 uM haloperidol from rat brain
Sigma 2 receptor = assay: Binding affinity towards sigma 2 receptor using [3H]DTG in the presence of 200 nM (+)-NANM from guinea pig brain; design: species or system Cavia porcellus
[3] = biological target: T1, Alpha-1A adrenergic receptor (Rattus norvegicus, UniProt P43140); assay: Compound was tested for its binding affinity towards Alpha-1A adrenergic receptor using [3H]prazosin from rat submaxillary gland
T1 sequence (P43140 whole entry): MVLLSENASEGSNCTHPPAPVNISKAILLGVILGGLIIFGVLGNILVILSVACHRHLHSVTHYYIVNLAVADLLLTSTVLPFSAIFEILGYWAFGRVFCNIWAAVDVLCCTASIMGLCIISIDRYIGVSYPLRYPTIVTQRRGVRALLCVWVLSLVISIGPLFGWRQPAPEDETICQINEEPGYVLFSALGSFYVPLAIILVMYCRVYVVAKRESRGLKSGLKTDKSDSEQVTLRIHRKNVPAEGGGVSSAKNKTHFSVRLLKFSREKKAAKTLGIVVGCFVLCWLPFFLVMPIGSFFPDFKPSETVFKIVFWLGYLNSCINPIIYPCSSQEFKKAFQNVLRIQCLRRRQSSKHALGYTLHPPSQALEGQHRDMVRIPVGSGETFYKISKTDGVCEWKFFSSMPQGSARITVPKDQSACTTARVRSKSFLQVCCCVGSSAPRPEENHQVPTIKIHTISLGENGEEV

[4] = biological target: T2, Muscarinic acetylcholine receptor M2 (Rattus norvegicus, UniProt P10980); assay: Compound was tested for its binding affinity towards Muscarinic acetylcholine receptor M2 using [3H]NMS from rat heart
T2 sequence (P10980 whole entry): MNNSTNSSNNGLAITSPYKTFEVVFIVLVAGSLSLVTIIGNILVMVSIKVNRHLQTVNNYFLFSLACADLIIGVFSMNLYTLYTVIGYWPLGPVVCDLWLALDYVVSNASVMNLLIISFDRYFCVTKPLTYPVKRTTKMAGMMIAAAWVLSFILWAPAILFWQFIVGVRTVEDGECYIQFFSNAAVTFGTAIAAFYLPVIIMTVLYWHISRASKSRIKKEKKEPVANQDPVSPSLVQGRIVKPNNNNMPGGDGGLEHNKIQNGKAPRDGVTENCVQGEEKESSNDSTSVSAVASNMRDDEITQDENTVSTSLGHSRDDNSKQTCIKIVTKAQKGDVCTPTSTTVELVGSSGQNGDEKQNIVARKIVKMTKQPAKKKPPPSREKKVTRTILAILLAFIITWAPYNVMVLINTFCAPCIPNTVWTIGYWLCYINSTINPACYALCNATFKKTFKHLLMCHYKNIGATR

[5] = biological target: T3, Alpha-1B adrenergic receptor (Rattus norvegicus, UniProt P15823); assay: Compound was tested for its binding affinity towards Alpha-1B adrenergic receptor using [3H]prazosin from rat liver
T3 sequence (P15823 whole entry): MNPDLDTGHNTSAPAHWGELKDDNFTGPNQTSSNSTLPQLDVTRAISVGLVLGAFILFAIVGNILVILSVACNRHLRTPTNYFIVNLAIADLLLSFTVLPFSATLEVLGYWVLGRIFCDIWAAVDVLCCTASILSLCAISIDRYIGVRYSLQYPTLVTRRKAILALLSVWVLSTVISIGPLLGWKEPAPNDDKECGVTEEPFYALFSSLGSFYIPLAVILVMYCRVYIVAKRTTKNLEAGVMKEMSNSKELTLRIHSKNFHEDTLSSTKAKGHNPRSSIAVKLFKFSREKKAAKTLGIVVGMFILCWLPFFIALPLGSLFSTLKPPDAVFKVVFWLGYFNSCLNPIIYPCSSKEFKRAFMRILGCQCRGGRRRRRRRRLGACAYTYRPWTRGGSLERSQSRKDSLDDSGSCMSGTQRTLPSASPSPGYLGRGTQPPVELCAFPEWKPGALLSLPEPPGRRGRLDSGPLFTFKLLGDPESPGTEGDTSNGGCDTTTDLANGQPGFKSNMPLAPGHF

[6] = biological target: Muscarinic acetylcholine receptor M3 (Rattus norvegicus, UniProt P08483); assay: Compound was tested for its binding affinity towards Muscarinic acetylcholine receptor M3 using [3H]NMS from rat submaxillary gland
Sequence of Muscarinic acetylcholine receptor M3 (P08483 whole entry): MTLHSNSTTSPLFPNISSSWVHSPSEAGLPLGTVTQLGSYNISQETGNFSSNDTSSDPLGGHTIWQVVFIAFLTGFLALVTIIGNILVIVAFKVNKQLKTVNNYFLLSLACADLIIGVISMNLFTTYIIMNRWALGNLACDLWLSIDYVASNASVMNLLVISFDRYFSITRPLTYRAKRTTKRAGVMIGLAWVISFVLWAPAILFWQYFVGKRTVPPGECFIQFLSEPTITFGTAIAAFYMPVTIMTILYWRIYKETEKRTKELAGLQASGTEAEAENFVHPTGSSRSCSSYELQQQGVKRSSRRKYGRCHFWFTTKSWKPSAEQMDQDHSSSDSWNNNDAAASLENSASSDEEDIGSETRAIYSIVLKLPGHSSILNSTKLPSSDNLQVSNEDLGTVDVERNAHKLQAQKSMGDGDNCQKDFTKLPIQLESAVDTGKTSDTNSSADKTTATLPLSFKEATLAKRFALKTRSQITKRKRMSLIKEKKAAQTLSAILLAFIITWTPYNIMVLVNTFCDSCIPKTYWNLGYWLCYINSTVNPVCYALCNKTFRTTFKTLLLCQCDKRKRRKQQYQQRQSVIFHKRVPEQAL

Sequence of D(2) dopamine receptor (P61169 whole entry): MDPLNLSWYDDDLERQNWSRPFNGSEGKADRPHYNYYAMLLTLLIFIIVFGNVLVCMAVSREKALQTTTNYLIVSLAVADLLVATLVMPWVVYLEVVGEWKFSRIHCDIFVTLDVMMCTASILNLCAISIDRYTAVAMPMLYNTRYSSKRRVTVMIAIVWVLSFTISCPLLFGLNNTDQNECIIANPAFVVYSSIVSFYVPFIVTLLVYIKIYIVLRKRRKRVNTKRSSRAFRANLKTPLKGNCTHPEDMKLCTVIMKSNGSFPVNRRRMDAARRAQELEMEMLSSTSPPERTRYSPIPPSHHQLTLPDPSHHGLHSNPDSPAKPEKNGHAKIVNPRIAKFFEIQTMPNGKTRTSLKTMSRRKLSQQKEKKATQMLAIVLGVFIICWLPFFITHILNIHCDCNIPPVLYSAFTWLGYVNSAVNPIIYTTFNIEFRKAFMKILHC
Sequence of Glutamate receptor ionotropic, NMDA 2C (Q00961 whole entry): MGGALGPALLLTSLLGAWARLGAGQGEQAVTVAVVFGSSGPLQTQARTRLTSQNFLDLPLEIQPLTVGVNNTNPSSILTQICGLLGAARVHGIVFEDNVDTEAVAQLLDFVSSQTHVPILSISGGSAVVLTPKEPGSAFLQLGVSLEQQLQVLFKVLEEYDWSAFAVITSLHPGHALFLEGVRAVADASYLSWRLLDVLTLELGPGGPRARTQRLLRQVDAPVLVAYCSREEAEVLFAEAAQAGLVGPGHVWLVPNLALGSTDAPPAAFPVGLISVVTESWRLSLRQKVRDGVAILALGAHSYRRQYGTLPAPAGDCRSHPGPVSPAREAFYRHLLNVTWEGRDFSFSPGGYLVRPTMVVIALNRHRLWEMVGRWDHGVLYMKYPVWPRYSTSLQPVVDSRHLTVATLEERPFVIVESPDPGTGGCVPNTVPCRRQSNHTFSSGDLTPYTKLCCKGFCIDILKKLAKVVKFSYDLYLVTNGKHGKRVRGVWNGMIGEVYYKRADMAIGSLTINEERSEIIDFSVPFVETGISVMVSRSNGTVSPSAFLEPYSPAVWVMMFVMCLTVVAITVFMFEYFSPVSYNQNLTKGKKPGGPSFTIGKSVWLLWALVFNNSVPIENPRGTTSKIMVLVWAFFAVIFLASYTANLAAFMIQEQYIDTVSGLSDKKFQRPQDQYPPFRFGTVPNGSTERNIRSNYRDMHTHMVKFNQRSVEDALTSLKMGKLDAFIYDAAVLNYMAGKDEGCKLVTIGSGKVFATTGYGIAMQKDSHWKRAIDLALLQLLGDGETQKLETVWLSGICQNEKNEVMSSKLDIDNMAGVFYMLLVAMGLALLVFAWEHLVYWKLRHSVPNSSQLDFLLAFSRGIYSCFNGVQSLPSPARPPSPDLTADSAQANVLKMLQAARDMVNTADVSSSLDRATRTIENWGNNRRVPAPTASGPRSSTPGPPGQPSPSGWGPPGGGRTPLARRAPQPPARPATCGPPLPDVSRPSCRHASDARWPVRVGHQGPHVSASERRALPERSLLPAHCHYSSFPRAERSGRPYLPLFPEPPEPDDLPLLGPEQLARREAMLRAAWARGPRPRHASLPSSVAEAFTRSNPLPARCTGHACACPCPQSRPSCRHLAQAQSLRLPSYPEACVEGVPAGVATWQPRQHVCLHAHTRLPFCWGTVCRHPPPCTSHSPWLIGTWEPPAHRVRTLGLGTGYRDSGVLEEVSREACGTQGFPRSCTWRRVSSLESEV

Row | Compound | Ki (Opioid receptor) | Ki [1] | Ki [2] | Ki [3] | Ki [4] | Ki [5] | Ki [6] | Ki (D(2) dopamine receptor) | Ki (Sigma 2 receptor)
1 | [O-][S+]1c2ccccc2CCC12CCN(Cc1ccccc1)CC2 (stereo unspecified) | > 10 µM | > 10 µM | > 10 µM | > 10 µM | > 10 µM | > 10 µM | > 10 µM | > 10 µM | 1.7 µM
2 | O=S1(=O)c2ccccc2CCC12CCN(Cc1ccccc1)CC2 | > 10 µM | > 10 µM | > 10 µM | > 10 µM | > 10 µM | > 10 µM | > 10 µM | > 10 µM | 1.8 µM
3 | CN1CCN(C2=Nc3cc(Cl)ccc3Nc3ccccc32)CC1 [CLOZAPINE] |  |  |  |  |  |  |  |  | > 10 µM

Continued, in another order:

Row | Ki (Opioid receptor) | Ki [1] | Ki [2] | Ki [3] | Ki [4] | Ki [5] | Ki [6] | Compound | Ki (D(2) dopamine receptor) | Ki (Sigma 2 receptor)
4 | > 10 µM | > 10 µM | > 10 µM | > 10 µM | > 10 µM | > 10 µM | > 10 µM | c1ccc(CN2CCC3(CCc4ccccc4O3)CC2)cc1 | > 10 µM | 0.022 µM
5 | > 10 µM | 7.6 µM | > 10 µM | > 10 µM | 10.8 µM | > 10 µM | > 10 µM | c1ccc(CN2CCC3(CCc4ccccc4S3)CC2)cc1 | 10.4 µM | 0.416 µM
6 | > 10 µM | 0.218 µM | > 10 µM | > 10 µM | 2.7 µM | > 10 µM | > 10 µM | O=C1c2ccccc2CCC12CCN(Cc1ccccc1)CC2 |  | 0.01 µM
7 |  |  |  |  |  |  | 0.998 µM | COc1ccccc1CNCCCCCCNCCCCCCCCNCCCCCCNCc1ccccc1OC [METHOCTRAMINE] |  | 
